The term IC50 denotes the concentration needed to halve the response being measured.

Like-named read-outs stand apart in the source and are kept apart here.

The record followed here is publication PMC8003485, “Synthesis and Evaluation of Novel α-Aminoamides Containing Benzoheterocyclic Moiety for the Treatment of Pain” (Molecules, 2021).

Test [1] concerns ICR (CD−1) male mice. In words: Formalin test (mouse, phase II paw licking). It is filed as in vivo. The following applies: 10 mg/kg, i.p., phase II (15–30 min), mean ± SD, n = 8; for inhibition in vivo at 10 mg/kg: Mus musculus, ip, read-out: % Analgesia (formalin test). On the procedure:
The formalin test was carried out using the method described previously. During the formalin test, Institute of Cancer Research (ICR; CD−1) male mice (weight: 22–25 g) were acclimated to the environment for two days before the experiment with food and water available freely. The mice were housed under a 12 h/12 h light/dark cycle. The temperature and humidity of the room were kept at 25 ± 2 °C and 50–60%, respectively. The mice were divided into a vehicle group, a ralfinamide group, and test compound groups randomly, with eight mice in each group. All compounds were dissolved in saline and administered by intraperitoneal injection (n = 8) or intragastric administration by mouth (n = 8) at 10 mg/kg. The vehicle group was given the same volume of saline.
After administration, the mice were placed into polyvinyl chloride (PVC) observation chambers. Thirty minutes later, the mice were injected subcutaneously with 20 μL of 2.7% formalin solution into the surface of their right hind paw and were returned to their PVC chambers immediately to observe their behavior. The cumulative time each mouse licked its right hind paw during phase II (15–30 min) was recorded as its painful time in phase II. The analgesic effects of the compounds were presented as the mean ± standard deviation. The data were analyzed by SPSS using one-way analysis of variance followed by Dunnett’s test. The analgesic activity of the test compounds was calculated according to the following formula. %Analgesia=Average Time (Vehicle)−Average Time (Drug)/Average Time (Vehicle)× 100%

The target in a further test is T1, hNav1.7 (Homo sapiens, UniProt Q15858).
T1 construct: expressed in transfected cells; host or cells: HEK293
T1 sequence (Q15858 whole entry): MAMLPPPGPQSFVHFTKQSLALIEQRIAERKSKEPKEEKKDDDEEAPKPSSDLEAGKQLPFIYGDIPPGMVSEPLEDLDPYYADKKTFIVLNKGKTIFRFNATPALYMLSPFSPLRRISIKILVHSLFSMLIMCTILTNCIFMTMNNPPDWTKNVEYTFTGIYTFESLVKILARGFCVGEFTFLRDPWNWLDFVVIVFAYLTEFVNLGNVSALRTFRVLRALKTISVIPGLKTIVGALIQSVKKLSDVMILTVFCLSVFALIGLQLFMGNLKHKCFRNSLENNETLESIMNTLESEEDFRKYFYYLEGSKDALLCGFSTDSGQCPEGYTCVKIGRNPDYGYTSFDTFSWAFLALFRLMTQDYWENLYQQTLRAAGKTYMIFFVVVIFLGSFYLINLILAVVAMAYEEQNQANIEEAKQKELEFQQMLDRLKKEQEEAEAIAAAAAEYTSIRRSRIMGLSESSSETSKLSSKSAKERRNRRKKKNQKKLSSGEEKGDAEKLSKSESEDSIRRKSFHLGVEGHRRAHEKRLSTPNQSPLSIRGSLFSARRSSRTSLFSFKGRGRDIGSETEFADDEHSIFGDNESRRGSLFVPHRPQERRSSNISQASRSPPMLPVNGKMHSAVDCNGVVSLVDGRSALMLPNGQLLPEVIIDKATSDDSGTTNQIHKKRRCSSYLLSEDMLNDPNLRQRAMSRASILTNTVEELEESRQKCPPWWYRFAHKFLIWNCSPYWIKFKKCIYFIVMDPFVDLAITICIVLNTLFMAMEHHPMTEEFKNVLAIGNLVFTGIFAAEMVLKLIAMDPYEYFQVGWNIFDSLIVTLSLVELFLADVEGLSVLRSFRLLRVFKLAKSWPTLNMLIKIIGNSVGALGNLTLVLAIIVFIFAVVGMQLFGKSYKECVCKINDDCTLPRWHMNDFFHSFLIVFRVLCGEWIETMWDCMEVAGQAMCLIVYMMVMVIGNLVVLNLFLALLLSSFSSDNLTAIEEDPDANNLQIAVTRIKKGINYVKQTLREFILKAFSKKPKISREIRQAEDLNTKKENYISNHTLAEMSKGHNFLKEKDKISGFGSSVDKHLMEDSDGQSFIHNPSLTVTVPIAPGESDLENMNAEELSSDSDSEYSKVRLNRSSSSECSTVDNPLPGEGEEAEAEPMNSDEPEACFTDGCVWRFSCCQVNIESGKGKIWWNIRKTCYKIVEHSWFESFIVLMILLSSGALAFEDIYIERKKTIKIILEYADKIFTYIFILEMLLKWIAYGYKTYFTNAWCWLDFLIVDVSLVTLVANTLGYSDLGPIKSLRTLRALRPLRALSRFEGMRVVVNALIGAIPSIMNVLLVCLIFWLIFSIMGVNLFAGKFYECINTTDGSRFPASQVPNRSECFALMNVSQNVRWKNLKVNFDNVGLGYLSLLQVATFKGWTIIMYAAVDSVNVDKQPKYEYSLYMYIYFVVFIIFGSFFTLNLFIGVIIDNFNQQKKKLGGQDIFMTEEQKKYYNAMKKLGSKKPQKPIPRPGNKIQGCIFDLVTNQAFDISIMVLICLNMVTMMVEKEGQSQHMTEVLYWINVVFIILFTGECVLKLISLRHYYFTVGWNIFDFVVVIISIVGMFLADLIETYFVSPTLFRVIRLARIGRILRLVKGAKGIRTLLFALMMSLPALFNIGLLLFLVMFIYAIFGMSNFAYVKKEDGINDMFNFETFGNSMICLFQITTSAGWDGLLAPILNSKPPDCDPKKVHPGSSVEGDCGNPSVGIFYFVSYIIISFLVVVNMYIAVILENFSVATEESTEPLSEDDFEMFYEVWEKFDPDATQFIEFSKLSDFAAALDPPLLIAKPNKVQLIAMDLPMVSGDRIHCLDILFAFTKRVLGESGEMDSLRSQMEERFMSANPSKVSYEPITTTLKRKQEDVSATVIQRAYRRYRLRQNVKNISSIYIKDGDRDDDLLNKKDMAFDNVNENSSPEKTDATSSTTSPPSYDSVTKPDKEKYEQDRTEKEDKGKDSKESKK
As to the kind of experiment: Whole-cell patch clamp assay for hNav1.7 inhibition (HEK293 cells stably expressing hNav1.7). The class given is cell-based. The following applies: for inhibition at 10 µM: HEK293, TTX-sensitive Nav1.7 current, mean ± SD. How it is done: The compounds were tested as hNav1.7 peak current inhibitors at room temperature using human embryonic kidney 293 cells stably expressing hNav1.7. The holding voltage was depolarized to 0 mV from −120 mV for 20 ms and restored to −75 mV for 8 s. After that, the membrane potential was recovered to −120 mV for 20 ms and then depolarized to 0 mV for another 20 ms. Finally, the voltage was renewed to −120 mV for 30 ms. The potential was applied every 20 s. The compounds were administered when the voltage of hNav1.7 recorded by the whole-cell patch clamp was stable. Every compound concentration was tested for 5 min, and all compounds were tested at several concentrations and with multiple cells.
On the technique in general: The patch-clamp technique gives a direct electrical read-out from membranes.

The test system of the next test is ICR (CD-1) male mice. As to the kind of experiment: Acetic acid-induced writhing test. The class given is in vivo. To be noted: 10 mg/kg, i.p.; writhes in 20 min; mean ± SD, n = 6. How it is done:
The writhing test was performed according to a previously reported method. The ICR (CD-1) male mice (weight: 22–25 g) were treated as for the formalin test in the same environment. The mice were divided into a vehicle group, a ralfinamide group, and test compound groups randomly, with six mice in each group. All compounds were dissolved in saline and administered by intraperitoneal injection at 10 mg/kg. The vehicle group was given the same volume of saline. After administration, the mice were placed into PVC chambers. Thirty minutes later, the mice were injected with 1% acetic acid solution at 10 mL/kg by intraperitoneal injection and placed into the observation chambers immediately to record the number of writhes each mouse had in 20 min. The results were presented as the mean ± standard deviation. The analytical method was the same as that for the formalin test, and the analgesic activity of each compound was calculated by the following formula. %Analgesia=Average Number (Vehicle)−Average Number (Drug)/Average Number (Vehicle)× 100%

The next test addresses T2, hNav1.8 (Homo sapiens, UniProt Q9Y5Y9).
T2 construct: expressed in transfected cells; host or cells: CHO
As to the kind of experiment: Whole-cell patch clamp assay for hNav1.8 inhibition (CHO cells stably expressing hNav1.8). It is filed as cell-based. To be noted: Nav1.8 inactivated state Na+ currents. How it is done:
The whole-cell patch clamp assay assessing the hNav1.8 current was carried out at room temperature with Chinese hamster ovary cells stably expressing hNav1.8. The holding voltage of the membrane was transferred to 0 mV from −120 mV for 50 ms and then restored to −50 mV for 8 s. After that, the membrane potential was renewed to −120 mV for 20 ms, which was followed by a depolarization to 0 mV for 50 ms. Finally, the potential was recovered to the holding voltage of −120 mV for 30 ms. This process was performed every 20 s. The compounds were administered when the voltage of hNav1.8 was stable. Every compound concentration was tested for 5 min, and all compounds were tested at several concentrations and with multiple cells.

In the next test the target is T3, hNav1.5 (Homo sapiens, UniProt Q14524).
T3 construct: expressed in transfected cells; host or cells: HEK293
As to the kind of experiment: Assay for hNav1.5 inhibition (HEK293 cells stably expressing hNav1.5). It is filed as cell-based. To be noted: HEK293; 10 µM; read-out: Inhibitory Effect to Nav1.5. On the procedure:
The inhibition of the compounds to hNav1.5 peak current was performed at room temperature using HEK293 cells that could express hNav1.5 stably. The holding voltage of the membrane was transferred to 0 mV from −120 mV for 50 ms and then restored to −50 mV for 8 s. After that, the membrane potential was renewed to −120 mV for 20 ms, followed by a depolarization to 0 mV for 50 ms. At last, the potential was recovered to the holding voltage −120 mV for 30 ms. This progress was performed every 20 s. The compounds were administrated when the voltage of hNav1.5 was stable. Every concentration was tested for 5 min and all compounds were tested at several concentrations and with multiple cells.

In test [2] the test system is ICR (CD−1) male mice. In words: Formalin test (mouse, phase II paw licking). The class given is in vivo. The following applies: 20 mg/kg, dose-effect relationship assay.
Setting [3] is: read-out: Inhibitory Effect against Nav1.7, Activated State (TP−1).
Setting [4] is: read-out: Inhibitory Effect against Nav1.7, Inactivated State (TP−2).

T2 sequence (Q9Y5Y9 whole entry): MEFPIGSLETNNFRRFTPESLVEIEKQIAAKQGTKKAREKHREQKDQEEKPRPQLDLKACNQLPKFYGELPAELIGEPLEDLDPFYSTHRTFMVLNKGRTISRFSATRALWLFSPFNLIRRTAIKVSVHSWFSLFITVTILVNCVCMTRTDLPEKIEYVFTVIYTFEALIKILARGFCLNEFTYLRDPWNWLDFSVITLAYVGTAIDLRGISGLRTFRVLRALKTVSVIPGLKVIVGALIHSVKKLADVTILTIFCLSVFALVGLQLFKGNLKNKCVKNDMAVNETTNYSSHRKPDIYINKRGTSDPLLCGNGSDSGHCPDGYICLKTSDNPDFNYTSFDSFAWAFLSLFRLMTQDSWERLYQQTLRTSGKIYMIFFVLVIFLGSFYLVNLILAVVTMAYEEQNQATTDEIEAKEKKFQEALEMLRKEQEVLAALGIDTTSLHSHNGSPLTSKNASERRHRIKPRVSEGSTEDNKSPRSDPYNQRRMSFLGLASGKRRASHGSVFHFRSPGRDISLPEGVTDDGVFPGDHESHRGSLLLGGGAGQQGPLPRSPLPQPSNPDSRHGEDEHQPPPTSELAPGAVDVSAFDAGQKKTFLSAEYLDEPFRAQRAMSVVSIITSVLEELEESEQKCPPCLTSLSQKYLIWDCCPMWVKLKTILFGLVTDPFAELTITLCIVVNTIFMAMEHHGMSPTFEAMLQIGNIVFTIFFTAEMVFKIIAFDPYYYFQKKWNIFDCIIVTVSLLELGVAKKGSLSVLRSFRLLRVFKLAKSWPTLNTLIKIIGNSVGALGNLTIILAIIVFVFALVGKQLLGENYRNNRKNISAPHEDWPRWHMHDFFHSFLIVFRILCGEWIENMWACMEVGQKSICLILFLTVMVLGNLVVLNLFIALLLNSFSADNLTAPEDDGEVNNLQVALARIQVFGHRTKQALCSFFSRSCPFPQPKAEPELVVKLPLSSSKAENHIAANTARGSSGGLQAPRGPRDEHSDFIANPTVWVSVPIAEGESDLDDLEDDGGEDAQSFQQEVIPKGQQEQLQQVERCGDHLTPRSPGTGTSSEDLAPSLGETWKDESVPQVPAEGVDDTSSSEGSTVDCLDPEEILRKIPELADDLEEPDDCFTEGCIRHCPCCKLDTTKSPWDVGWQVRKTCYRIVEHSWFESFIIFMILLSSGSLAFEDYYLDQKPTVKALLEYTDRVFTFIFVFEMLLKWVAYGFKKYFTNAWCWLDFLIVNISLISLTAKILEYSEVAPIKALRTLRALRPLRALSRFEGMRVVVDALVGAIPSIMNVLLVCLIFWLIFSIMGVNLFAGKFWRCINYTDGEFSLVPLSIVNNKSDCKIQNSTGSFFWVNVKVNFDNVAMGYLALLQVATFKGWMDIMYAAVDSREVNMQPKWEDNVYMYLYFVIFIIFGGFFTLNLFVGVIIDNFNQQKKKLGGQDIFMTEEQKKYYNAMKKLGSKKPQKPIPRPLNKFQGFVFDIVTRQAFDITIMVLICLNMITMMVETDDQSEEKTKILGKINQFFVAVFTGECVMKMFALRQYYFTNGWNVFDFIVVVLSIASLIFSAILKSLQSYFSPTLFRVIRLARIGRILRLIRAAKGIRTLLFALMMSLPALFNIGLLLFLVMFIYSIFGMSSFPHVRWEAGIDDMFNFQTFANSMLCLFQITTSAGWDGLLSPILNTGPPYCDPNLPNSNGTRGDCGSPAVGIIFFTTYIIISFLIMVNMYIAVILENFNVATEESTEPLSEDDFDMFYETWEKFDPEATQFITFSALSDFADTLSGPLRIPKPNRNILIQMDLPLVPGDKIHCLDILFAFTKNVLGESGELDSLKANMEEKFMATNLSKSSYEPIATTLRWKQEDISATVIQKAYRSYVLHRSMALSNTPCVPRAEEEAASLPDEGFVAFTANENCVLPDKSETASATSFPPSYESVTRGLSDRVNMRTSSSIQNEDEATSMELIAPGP

As for `C[C@H](NCc1ccc(COc2ccc3cccnc3c2)cc1)C(N)=O` [Compound 7f, (S)-2-((4-((Quinolin-7-yloxy)methyl)benzyl)amino)propanamide], the inhibition in vivo at 10 mg/kg with ICR (CD−1) male mice [1] worked out at 15.9 ± 17.6%. The inhibition at 10 µM was -1.8 ± 3.2% at hNav1.7 (setting [3]) and 31.6 ± 3.4% at hNav1.7 (setting [4]).

Take `C[C@H](NCc1ccc(COc2ccc3[nH]cnc3c2)cc1)C(N)=O` [Compound 5d, (S)-2-((4-(((1H-Benzo[d]imidazol-5-yl)oxy)methyl)benzyl)amino)propanamide]: the inhibition in vivo at 10 mg/kg in the test on ICR (CD−1) male mice [1] is 60.8 ± 32.2%. Besides, the inhibition at 10 µM at hNav1.7 (setting [3]) came to 0.7 ± 0.8%; on hNav1.7 (setting [4]) it was 1.5 ± 0.9%.

As for `C[C@H](NCc1cccc(COc2ccc3occc3c2)c1)C(N)=O` [Compound 6c, (S)-2-((3-((Benzofuran-5-yloxy)methyl)benzyl)amino)propanamide], the inhibition in vivo at 10 mg/kg in the test on ICR (CD−1) male mice [1] was 30.2 ± 19.8%. Besides, in the test with ICR (CD-1) male mice, the “% Analgesia (acetic acid-induced writhing test)” value is recorded as 11.2 ± 7.6%. The inhibition at 10 µM at hNav1.7 (setting [3]) was 12.2 ± 0.7%; on hNav1.7 (setting [4]), 48.1 ± 4.2%.

`C[C@H](NCc1cccc(COc2ccc3ncccc3c2)c1)C(N)=O` [Compound 7c, (S)-2-((3-((Quinolin-6-yloxy)methyl)benzyl)amino)propanamide]: in the test with ICR (CD−1) male mice [1], the inhibition in vivo at 10 mg/kg amounted to 81.5 ± 14.8%. In addition, the values for the inhibition at 10 µM on hNav1.7 (setting [3]) and on hNav1.7 (setting [4]) were 8.6 ± 1.2% and 30 ± 2.9%, respectively.

With `C[C@H](NCc1cccc(COc2ccc3cccnc3c2)c1)C(N)=O` [Compound 7e, (S)-2-((3-((Quinolin-7-yloxy)methyl)benzyl)amino)propanamide], the inhibition in vivo at 10 mg/kg with ICR (CD−1) male mice [1] was 30.6 ± 14.7%. Also, the figures for the inhibition at 10 µM at hNav1.7 (setting [3]) and at hNav1.7 (setting [4]) were 3.6 ± 3.3% and 47.7 ± 2.7%, respectively.

Regarding `C[C@H](NCc1ccc(COc2cccc3occc23)cc1)C(N)=O` [Compound 6b, (S)-2-((4-((Benzofuran-4-yloxy)methyl)benzyl)amino)propanamide], the inhibition in vivo at 10 mg/kg in the test with ICR (CD−1) male mice [1] is 48.4 ± 26.4%. Moreover, the “% Analgesia (acetic acid-induced writhing test)” value in the test with ICR (CD-1) male mice is on record as 48.0 ± 5.8 ^☆ %. Besides, the inhibition at 10 µM at hNav1.7 (setting [3]) was 11.8 ± 0.3%; on hNav1.7 (setting [4]), 55.5 ± 2.5%.

`C[C@H](NCc1ccc(OCc2ccccc2F)cc1)C(N)=O` [Ralfinamide, reference compound]: in the test with ICR (CD−1) male mice [1], the “% Analgesia (formalin test)” value came to 42.4 ± 23.3 %. For the same compound, in the test on ICR (CD−1) male mice [1], the inhibition in vivo at 10 mg/kg was 42.4%. In addition, in the test with ICR (CD-1) male mice, the “% Analgesia (acetic acid-induced writhing test)” value is 44.4 ± 15.5 ^☆ %. Moreover, the inhibition at 10 µM is 8.1 ± 3.8% on hNav1.7 (setting [3]), 57.7 ± 3.4% on hNav1.7 (setting [4]) and 64.6 ± 3.2% on hNav1.5. For the same compound, the concentration for half-maximal inhibition (IC50) against hNav1.7 (Table 4, TTX-sensitive inactivated Nav1.7 current) was found to be 6.6 ± 1.6 µM; against hNav1.8 it was 36.3 ± 8.9 µM. Moreover, the “Analgesic response (formalin test)” value in the test on ICR (CD−1) male mice [2] is recorded as 59.7%.

In the case of `C[C@H](NCc1cccc(COc2cccc3cccnc23)c1)C(N)=O` [Compound 7g, (S)-2-((3-((Quinolin-8-yloxy)methyl)benzyl)amino)propanamide], the inhibition in vivo at 10 mg/kg with ICR (CD−1) male mice [1] amounted to 35.6 ± 26.1%. In addition, the inhibition at 10 µM at hNav1.7 (setting [3]) was 14.7 ± 0.2%; at hNav1.7 (setting [4]), 46 ± 0.1%.

`C[C@H](NCc1ccc(COc2cccc3cccnc23)cc1)C(N)=O` [Compound 7h, (S)-2-((4-((Quinolin-8-yloxy)methyl)benzyl)amino)propanamide]: the inhibition in vivo at 10 mg/kg in the test on ICR (CD−1) male mice [1] was 57.2 ± 30.1%. Moreover, the inhibition at 10 µM turned out to be 9.1 ± 4.3% at hNav1.7 (setting [3]) and 38.6 ± 4.7% on hNav1.7 (setting [4]).

With `C[C@H](NCc1cccc(COc2ccc3[nH]cnc3c2)c1)C(N)=O` [Compound 5c, (S)-2-((3-(((1H-Benzo[d]imidazol-5-yl)oxy)methyl)benzyl)amino)propanamide], the inhibition in vivo at 10 mg/kg in the test on ICR (CD−1) male mice [1] was 48.8 ± 15.5%. Besides, the inhibition at 10 µM at hNav1.7 (setting [3]) came out at 1.7 ± 0.3%; on hNav1.7 (setting [4]), 2.6 ± 0.8%.

Take `C[C@H](NCc1ccc(COc2cccc3[nH]cnc23)cc1)C(N)=O` [Compound 5b, (S)-2-((4-(((1H-Benzo[d]imidazol-4-yl)oxy)methyl)benzyl)amino)propanamide]: in the test on ICR (CD−1) male mice [1], the inhibition in vivo at 10 mg/kg was determined as 27.4 ± 19.2%. Moreover, the inhibition at 10 µM at hNav1.7 (setting [3]) was 3.7 ± 2%; at hNav1.7 (setting [4]), 1.4 ± 0.6%.

With `C[C@H](NCc1ccc(COc2ccc3occc3c2)cc1)C(N)=O` [Compound 6d, (S)-2-((4-((Benzofuran-5-yloxy)methyl)benzyl)amino)propanamide], the inhibition in vivo at 10 mg/kg with ICR (CD−1) male mice [1] turned out to be 42.2 ± 16.3%. Besides, in the test with ICR (CD-1) male mice, the “% Analgesia (acetic acid-induced writhing test)” value turned out to be 28.9 ± 8.5 %. Moreover, the inhibition at 10 µM at hNav1.7 (setting [3]) was 10.9 ± 1.1%; on hNav1.7 (setting [4]), 31.8 ± 0.3%.

`C[C@H](NCc1cccc(COc2cccc3[nH]cnc23)c1)C(N)=O` [Compound 5a, (S)-2-((3-(((1H-Benzo[d]imidazol-4-yl)oxy)methyl)benzyl)amino)propanamide]: the inhibition in vivo at 10 mg/kg in the test on ICR (CD−1) male mice [1] amounted to 51 ± 21.6%. In addition, the inhibition at 10 µM amounted to 5.1 ± 1.2% at hNav1.7 (setting [3]) and 10.7 ± 0.4% at hNav1.7 (setting [4]).

Take `C[C@H](NCc1ccc(COc2cccc3ncccc23)cc1)C(N)=O` [Compound 7b, (S)-2-((4-((Quinolin-5-yloxy)methyl)benzyl)amino)propanamide]: the inhibition in vivo at 10 mg/kg with ICR (CD−1) male mice [1] came to 37.2 ± 25.3%. The inhibition at 10 µM at hNav1.7 (setting [3]) stood at 14.7 ± 5.4%; at hNav1.7 (setting [4]), 29.8 ± 0.6%.

As for `C[C@H](NCc1ccc(COc2ccc3ncccc3c2)cc1)C(N)=O` [Compound 7d, (S)-2-((4-((Quinolin-6-yloxy)methyl)benzyl)amino)propanamide], the inhibition in vivo at 10 mg/kg with ICR (CD−1) male mice [1] was found to be 20.9 ± 18.7%. The inhibition at 10 µM on hNav1.7 (setting [3]) is 3.7 ± 0.5%; at hNav1.7 (setting [4]) it was 13.5 ± 0.4%.

As for `C[C@H](NCc1cccc(COc2cccc3ncccc23)c1)C(N)=O` [Compound 7a, (S)-2-((3-((Quinolin-5-yloxy)methyl)benzyl)amino)propanamide], the inhibition in vivo at 10 mg/kg with ICR (CD−1) male mice [1] is 48 ± 27.8%. Further, the inhibition at 10 µM at hNav1.7 (setting [3]) worked out at 6.4 ± 4.9%; on hNav1.7 (setting [4]) it was 23.8 ± 3.6%.
